The record followed here is PubChem BioAssay AID328 (DTP/NCI, 2004).

For the assay, the system named is BDF1 mice, P388 leukemia ip, median survival T/C. Briefly: NCI In Vivo Anticancer Drug Screen. Data for tumor model P388 Leukemia (intraperitoneal) in B6D2F1 (BDF1) mice. The following applies: endpoint: median survival time, higher = longer survival. An outline of the steps: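 Read-out is survival of treated animals expressed relative to the vehicle group, as a T/C ratio.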

Where [1] appears, read: dose: 25.0 mg/kg/injection, schedule: Q04DX003 (ip), vehicle: saline.
The mark [2] stands for this setting: dose: 50.0 mg/kg/injection, schedule: Q04DX003 (ip), vehicle: saline.
Setting [3] is: dose: 50.0 mg/kg/injection, schedule: Q01DX009 (ip), vehicle: saline with Tween-80.
The mark [4] stands for this setting: dose: 100.0 mg/kg/injection, schedule: Q01DX009 (ip), vehicle: saline with Tween-80.
Setting [5] is: dose: 12.5 mg/kg/injection, schedule: Q01DX009 (ip), vehicle: saline with Tween-80.
The mark [6] stands for this setting: dose: 25.0 mg/kg/injection, schedule: Q01DX009 (ip), vehicle: saline with Tween-80.
Setting [7] is: dose: 50.0 mg/kg/injection, schedule: Q04DX003 (ip), vehicle: saline with Tween-80.
The mark [8] stands for this setting: dose: 100.0 mg/kg/injection, schedule: Q04DX003 (ip), vehicle: saline with Tween-80.
Where [9] appears, read: dose: 100.0 mg/kg/injection, schedule: Q04DX003 (ip), vehicle: saline.
Where [10] appears, read: dose: 200.0 mg/kg/injection, schedule: Q04DX003 (ip), vehicle: saline with Tween-80.
Setting [11] is: dose: 100.0 mg/kg/injection, schedule: Q04DX003 (ip), vehicle: saline sonified.
[12] abbreviates: dose: 200.0 mg/kg/injection, schedule: Q04DX003 (ip), vehicle: saline sonified.
[13] abbreviates: dose: 400.0 mg/kg/injection, schedule: Q04DX003 (ip), vehicle: saline with Tween-80.

Each structure is given as a SMILES string. Where “and” joins values, the source holds several entries; their conditions need not be identical. Equal values may be shown once. Inconclusive results and toxic doses are left out.

For the compound `Cc1ccc(S(=O)(=O)N(CCC(=N)N)C(C)C)cc1`, the T/C was 95 % of control (dose: 12.5 mg/kg/injection, schedule: Q01DX009 (ip), vehicle: saline); 90 % of control (dose: 25.0 mg/kg/injection, schedule: Q01DX009 (ip), vehicle: saline); 104 % of control under setting [1]; 105 % of control (dose: 50.0 mg/kg/injection, schedule: Q01DX009 (ip), vehicle: saline); 100 % of control under setting [2].
Consider `C=C1CCC2C1C1C(C(C)C)CCC21C` (centres undefined), for which the T/C reads like this: under setting [3], 105 % of control; under setting [4], 104 % of control.
For the compound `NC(CSC(c1ccccc1)(c1ccccc1)c1ccc(Br)cc1)C(=O)O` (centres undefined), the T/C reads like this: (dose: 5.0 mg/kg/injection, schedule: Q04DX003 (ip), vehicle: Klucel (hydroxypropylcellulose) (HPC)) 118 % of control; (dose: 6.25 mg/kg/injection, schedule: Q01DX009 (ip), vehicle: saline with Tween-80) 190 % of control; under setting [5], 245 % of control; under setting [6], 270 % of control; under setting [1], 165 % of control; (dose: 30.0 mg/kg/injection, schedule: Q04DX003 (ip), vehicle: Klucel (hydroxypropylcellulose) (HPC)) 154 % of control. Moreover, the T/C was 166 % of control (dose: 45.0 mg/kg/injection, schedule: Q04DX003 (ip), vehicle: other); 176 % of control under setting [7]; 204 % of control and 210 % of control under setting [2]; 183 % of control (dose: 65.0 mg/kg/injection, schedule: Q04DX003 (ip), vehicle: other); 100 % of control under setting [4]; 170 % of control (dose: 100.0 mg/kg/injection, schedule: Q04DX003 (ip), vehicle: other). The T/C by setting is: under setting [8], 185 % of control; under setting [9], 230 % of control; (dose: 150.0 mg/kg/injection, schedule: Q04DX003 (ip), vehicle: other) 250 % of control; under setting [10], 100 % of control.
In the case of `CN1CCC=C(C(=O)N(c2ccccc2)c2ccccc2)C1`, the T/C is 95 % of control under setting [2]; 100 % of control under setting [9]; 100 % of control (dose: 200.0 mg/kg/injection, schedule: Q04DX003 (ip), vehicle: saline).
In the case of `CC(C)(C)OC(=O)NC(CCCCNC(=O)OCc1ccccc1)C(=O)NC(CCCCNC(=O)OCc1ccccc1)C(=O)NC(CCCCNC(=O)OCc1ccccc1)C(=O)OCc1ccccc1` (centres undefined), the T/C is 86 % of control (dose: 50.0 mg/kg/injection, schedule: Q01DX005 (ip), vehicle: saline with Tween-80) and 90 % of control (dose: 200.0 mg/kg/injection, schedule: Q01DX005 (ip), vehicle: saline with Tween-80).
With `O=C(CCCCl)CC(O)(C(F)(F)F)C(F)(F)F`, the T/C under setting [5] is 95 % of control, the T/C under setting [6] is 100 % of control, the T/C under setting [3] is 115 % of control and the T/C under setting [4] was 104 % of control.
Turning to `c1ccc(COCC[P+](c2ccccc2)(c2ccccc2)c2ccccc2)cc1`, the T/C reads like this: (dose: 2.5 mg/kg/injection, schedule: Q01DX010 (ip), vehicle: saline) 90 % of control; (dose: 5.0 mg/kg/injection, schedule: Q01DX010 (ip), vehicle: saline) 100 % of control; (dose: 10.0 mg/kg/injection, schedule: Q01DX010 (ip), vehicle: saline) 113 % of control.
With `O=C(NC(=O)c1c(F)cccc1F)Nc1nc(-c2ccccc2)cs1`, the T/C is 93 % of control under setting [6], 100 % of control under setting [3] and 90 % of control under setting [4].
`CCOC(=O)CC/[N+]([O-])=C/c1ccccc1`: the T/C reads like this: (dose: 12.5 mg/kg/injection, schedule: Q01DX009 (ip), vehicle: other) 97 % of control; (dose: 25.0 mg/kg/injection, schedule: Q01DX009 (ip), vehicle: other) 112 % of control; (dose: 50.0 mg/kg/injection, schedule: Q01DX009 (ip), vehicle: other) 92 % of control; (dose: 100.0 mg/kg/injection, schedule: Q01DX009 (ip), vehicle: other) 97 % of control; (dose: 200.0 mg/kg/injection, schedule: Q01DX009 (ip), vehicle: other) 104 % of control.
Consider `Oc1ccccc1C=NC1CCCCC1.Oc1ccccc1C=NC1CCCCC1.[Ni+2]`, for which the T/C runs as follows: (dose: 50.0 mg/kg/injection, schedule: Q04DX003 (ip), vehicle: saline sonified) 109 % of control; under setting [11], 109 % of control; under setting [12], 100 % of control.
As to `C=[CH][Sn][CH2]CCC`, the T/C (dose: 12.5 mg/kg/injection, schedule: Q01DX009 (ip), vehicle: Klucel (hydroxypropylcellulose) (HPC)) is 100 % of control; the T/C (dose: 25.0 mg/kg/injection, schedule: Q01DX009 (ip), vehicle: Klucel (hydroxypropylcellulose) (HPC)) is 103 % of control; the T/C (dose: 50.0 mg/kg/injection, schedule: Q01DX009 (ip), vehicle: Klucel (hydroxypropylcellulose) (HPC)) was 99 % of control.
As to `Nc1nc(=O)[nH]c(N)c1N=O`, the T/C is, setting by setting: (dose: 25.0 mg/kg/injection, schedule: Q04DX003 (ip), vehicle: saline with Tween-80) 98 % of control; under setting [7], 107 % of control; under setting [8], 100 % of control; under setting [10], 100 % of control; under setting [13], 102 % of control.
On to `CCCC(=O)NC1=C(N2CC2)C(=O)C(NC(=O)CCC)=C(N2CC2)C1=O`, for which the T/C (dose: 0.44 mg/kg/injection, schedule: Q04DX003 (ip), vehicle: saline with Tween-80) is 104 % of control; the T/C (dose: 0.66 mg/kg/injection, schedule: Q04DX003 (ip), vehicle: saline with Tween-80) is 109 % of control; the T/C (dose: 1.0 mg/kg/injection, schedule: Q01DX009 (ip), vehicle: saline) is 213 % of control; the T/C (dose: 1.0 mg/kg/injection, schedule: Q04DX003 (ip), vehicle: saline with Tween-80) is 122 % of control; the T/C (dose: 1.5 mg/kg/injection, schedule: Q04DX003 (ip), vehicle: saline with Tween-80) is 100 % of control; the T/C (dose: 2.0 mg/kg/injection, schedule: Q01DX009 (ip), vehicle: saline) was 200 % of control. The T/C is 150 % of control (dose: 2.5 mg/kg/injection, schedule: Q04DX003 (ip), vehicle: saline with Tween-80); 285 % of control (dose: 4.0 mg/kg/injection, schedule: Q01DX009 (ip), vehicle: saline); 204 % of control (dose: 5.0 mg/kg/injection, schedule: Q04DX003 (ip), vehicle: saline with Tween-80); 250 % of control (dose: 10.0 mg/kg/injection, schedule: Q04DX003 (ip), vehicle: saline with Tween-80).
In the case of `Cc1c(C#N)c2n(c1C)CCCC(=O)N2`, the T/C is 95 % of control under setting [6]; 109 % of control under setting [3]; 91 % of control under setting [7]; 104 % of control under setting [4]; 91 % of control under setting [8]; 100 % of control (dose: 200.0 mg/kg/injection, schedule: Q01DX009 (ip), vehicle: saline with Tween-80). Further, the T/C was 87 % of control under setting [10] and 91 % of control under setting [13].
On to `O=C(O)C(=O)O.OO.OO.OO.[Nb]`, for which, for the setting “dose: 200.0 mg/kg/injection, schedule: Q01DX009 (ip), vehicle: saline”, the T/C was 86 % of control.
`O=C(/C=C\c1ccc2c(c1)OCO2)/C=C/c1ccc2c(c1)OCO2`: the T/C was 104 % of control (dose: 100.0 mg/kg/injection, schedule: Q01DX009 (ip), vehicle: Klucel (hydroxypropylcellulose) (HPC)); 100 % of control under setting [11]; 100 % of control (dose: 200.0 mg/kg/injection, schedule: Q01DX009 (ip), vehicle: Klucel (hydroxypropylcellulose) (HPC)); 109 % of control under setting [12]; 95 % of control (dose: 400.0 mg/kg/injection, schedule: Q01DX009 (ip), vehicle: Klucel (hydroxypropylcellulose) (HPC)); 100 % of control (dose: 400.0 mg/kg/injection, schedule: Q04DX003 (ip), vehicle: saline sonified).
For `[Fe+5].[O-][Cl+3]([O-])([O-])O.[O-]c1ccccc1C=NCCN1CC1.[O-]c1ccccc1C=NCCN1CC1`, the T/C was 100 % of control and 120 % of control under setting [8]; 116 % of control under setting [10].
Take `COC(=O)c1cc[nH]c1CC(=O)O`: the T/C by setting is: (dose: 100.0 mg/kg/injection, schedule: Q01DX001 (ip), vehicle: saline with Tween-80) 101 % of control; (dose: 200.0 mg/kg/injection, schedule: Q01DX001 (ip), vehicle: saline with Tween-80) 106 % of control; (dose: 400.0 mg/kg/injection, schedule: Q01DX001 (ip), vehicle: saline with Tween-80) 110 % of control.
